The target in assay [1] is T1, F175Y/Y177F variant (YGF) of zebrafish α1 GlyR (Danio rerio, UniProt O93430, F183Y/Y185F).
T1 sequence (O93430 25-444 F183Y/Y185F): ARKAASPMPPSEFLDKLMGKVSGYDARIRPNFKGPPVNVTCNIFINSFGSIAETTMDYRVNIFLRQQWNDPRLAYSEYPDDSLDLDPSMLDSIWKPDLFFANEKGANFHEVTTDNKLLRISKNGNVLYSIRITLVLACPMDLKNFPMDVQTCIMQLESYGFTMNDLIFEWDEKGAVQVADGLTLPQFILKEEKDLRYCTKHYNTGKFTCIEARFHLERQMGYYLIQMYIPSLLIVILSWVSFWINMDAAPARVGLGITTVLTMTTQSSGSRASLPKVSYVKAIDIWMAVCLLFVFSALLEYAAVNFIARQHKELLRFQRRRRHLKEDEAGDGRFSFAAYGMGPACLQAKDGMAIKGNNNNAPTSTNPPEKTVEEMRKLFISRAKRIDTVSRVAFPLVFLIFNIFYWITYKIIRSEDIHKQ
Put plainly: Cell-attached single-channel recording, cluster open probability, YGF mutant. The note with it: HEK293A cells, single-channel clusters, 100 mM GABA. In kind it is cell-based.

For assay [2], the target named is T2, Full-length zebrafish α1 GlyR (Danio rerio, UniProt O93430).
T2 sequence (O93430 25-444): T1 sequence (O93430 25-444 F183Y/Y185F) with Y159F, F161Y
In words: Whole cell dose-response, FL GlyR. In kind it is cell-based.

Assay [3] deals with T3, FL receptor (full-length zebrafish α1 glycine receptor) (Danio rerio, UniProt O93430).
T3 sequence (O93430 25-444): T1 sequence (O93430 25-444 F183Y/Y185F) with Y159F, F161Y
In words: Ligand binding with 3H-strychnine by SPA, FL receptor in SMA.

For assay [4], the target named is T4, YGF mutant of zebrafish α1 glycine receptor (Danio rerio, UniProt O93430, F183Y/Y185F).
T4 sequence (O93430 25-444 F183Y/Y185F): T1 sequence (O93430 25-444 F183Y/Y185F)
In words: Ligand binding with 3H-strychnine by SPA, YGF mutant in SMA.

Assay [5] deals with T5, YYY mutant (F115Y/F175Y/F223Y) of GlyR (Danio rerio, UniProt O93430, F123Y/F183Y/F231Y).
T5 sequence (O93430 25-444 F123Y/F183Y/F231Y): T1 sequence (O93430 25-444 F183Y/Y185F) with F99Y, F161Y, F207Y
In words: Single-channel open probability, YYY mutant. In kind it is cell-based, zebrafish. As to conditions: 100 mM GABA; similar Po in the YYY mutant as in the FL receptor.

The target in assay [6] is T1, F175Y/Y177F variant (YGF) of zebrafish α1 GlyR. Put plainly: Whole cell dose-response, YGF mutant. In kind it is cell-based. The note with it: HEK293A, ± SEM, n≥6 cells.
Assay [7] relates to GlyR Ser294 to cysteine mutant. The note with it: S294C vs wild type; ref Lynch et al., 2001; cited from earlier work.
Assay [8] concerns the target T2, Full-length zebrafish α1 GlyR. In words: Macroscopic currents in outside-out patches, fast agonist application.

One may read the EC50 as the midpoint of the concentration-response curve. Read a low EC50 as a more potent agent. Usually Ki stands for a dissociation constant, usually derived from enzyme kinetics or from competition with a known ligand. Higher therefore signals a looser hold on the target.

Residue numbers refer to the chain shown, from its start. Read-outs that look alike come from different tables or passages of the source.

With `NCCCC(=O)O` [GABA, γ-amino butyric acid], in assay [1], the Po was found to be 92 ± 2%. In assay [2], this compound yielded an EC50 of 28400 ± 900 µM. Also, the figures for the inhibitory constant (Ki) in assay [3] and in assay [4] were 1410 ± 940 µM and 180 ± 70 µM, respectively. Moreover, the “agonist efficacy (Po) in YYY mutant compared with FL receptor” value in assay [5] is “remained a weak partial agonist”.

For `NCC(=O)O` [glycine], the EC50 in assay [2] (FL GlyR, whole cell, HEK293A, -40 mV, ± SEM, n≥6 cells) came out at 190 ± 20 µM; in assay [6], 33 ± 3 µM. The “increase of glycine EC50 by mutation of Ser294 to cysteine” value in assay [7] is on record as ~ 5 fold. Also, the “current left at the end of the 1-s pulse, range over patches” value in assay [8] (10 mM glycine, 8 patches) is 17–89%. In addition, in assay [8] (10 mM glycine, single outside-out patch of Figure S1A), the “current left at the end of the 1-s pulse, patch shown” value stood at 17%. For the same compound, the “current left, % of peak, after 1 s application (desensitization), average” value in assay [8] (saturating (10 mM) glycine, outside-out patches, n=8 patches) was found to be 57 ± 8%.

In turn, `NCCS(=O)(=O)O` [taurine] gave a Po in assay [1] of 95 ± 5%. The same compound yielded an EC50 in assay [2] of 1050 ± 80 µM.

Source of the values: article PMC8115384 (Cell, 2021).
